Data as given in patent publication US11766468B2, “Method of treating prostate cancer with GnRH antagonist” (priority 2012, dated 2023).
Square brackets hold non-standard residues; d marks the D form. Peptide text beside a SMILES is read from it. * marks the point of attachment. dPhe(4-NHCONH2) = NC(=O)Nc1ccc(C[C@@H](N)C(=O)O)cc1; Dihydroorotyl(S) = O=C1C[C@@H](C(=O)*)NC(=O)N1; dPhe(4-Cl) = N[C@H](Cc1ccc(Cl)cc1)C(=O)O; Phe(4-NH2) = Nc1ccc(C[C@H](N)C(=O)O)cc1; d2Nal = N[C@H](Cc1ccc2ccccc2c1)C(=O)O; Lys(iPr) = CC(C)NCCCC[C@H](N)C(=O)O; d3Pal = N[C@H](Cc1cccnc1)C(=O)O

Assay: CS21: incidence rates of cardiovascular events per 1,000 person years (Poisson model), by risk-factor subgroup
Conditions: for Coronary artery disease, % of patients / Coronary artery disease, incidence rate / HLGT Cardiac arrhythmias, % of patients / HLGT Cardiac arrhythmias, incidence rate / HLGT Central nervous system vascular disorders, % of patients / HLGT Central nervous system vascular disorders, incidence rate / HLGT Coronary artery disorders, % of patients / HLGT Coronary artery disorders, incidence rate / HLGT Heart failures, % of patients / HLGT Heart failures, incidence rate / Heart failure, % of patients / Heart failure, incidence rate / MI, % of patients / MI, incidence rate / Stroke, % of patients / Stroke, incidence rate: in vivo
Description: The SCS summarizes both crude incidences (n/N) as well as incidence rates of adverse events (number of patients with at least one adverse event investigated per 1,000 person years) including exact 95% CI based on the Poisson model and presented per MedDRA Preferred term (and grouped by SOC) for all study-groups, including the CS21 trial (the trial comprising the controlled phase 3 study group) and for all sub-groups. Briefly, the Poisson model provides exact 1-α lower (LL) and upper (UL) confidence limits are LL=χ2x; α/2^2/(2T) and UL=χ2(x+1); 1-α/2^2/(2T), respectively, where T is the number of 1,000 person years and x=number of subjects at least once having reported the adverse event under investigation (see Gerlinger et al. (2003) Eur. J. Contracept. Reprod. Health Care 8:87-92).
These P values were presented as *(0.01<P≤0.05), ** (0.001<P≤0.01), and *** (P≤0.001). Similarly, incidence rates were compared using P values associated with the Poison model-based UMPU test. Briefly, assuming xi˜Poisson(λiTi), where xi=the number of subjects with the event, Ti=total number of 1,000 person years in arm i and λi=incidence rate in arm i (i=1,2), then the P value=2 min ([…], P(S≤x1), 0.5), where S˜Binomial (x1+x2, T1/(T1+T2)) (see, e.g. Lehmann (1986) Testing Statistical Hypotheses, 2nd edition, Springer-Verlag, New York).
In the SCS, cardiovascular events were more specifically investigated on more aggregated MedDRA levels, i.e. the incidence, and incidence rates of subject with AEs in the following High Level Group Terms were tabulated by study group and treatment:
These subgroup analyses were not pre-planned as part of the SCS.

CC(=O)N[C@H](Cc1ccc2ccccc2c1)C(=O)N[C@H](Cc1ccc(Cl)cc1)C(=O)N[C@H](Cc1cccnc1)C(=O)N[C@@H](CO)C(=O)N[C@@H](Cc1ccc(NC(=O)[C@@H]2CC(=O)NC(=O)N2)cc1)C(=O)N[C@H](Cc1ccc(NC(N)=O)cc1)C(=O)N[C@@H](CC(C)C)C(=O)N[C@@H](CCCCNC(C)C)C(=O)N1CCC[C@H]1C(=O)N[C@H](C)C(N)=O [Degarelix, D-Alaninamide, N-acetyl-3-(2-naphthalenyl)-D-alanyl-4-chloro-D-phenylalanyl-3-(3-pyridinyl)-D-alanyl-L-seryl-4-[[[(4S)-hexahydro-2,6-dioxo-4-pyrimidinyl]carbonyl]amino]-L phenylalanyl-4-[(aminocarbonyl)amino]-D-phenylalanyl-L leucyl-N6-(1-methylethyl)-L-lysyl-L-prolyl] (Ac-[d2Nal][dPhe(4-Cl)][d3Pal]S[Phe(4-NH2)](Dihydroorotyl(S))[dPhe(4-NHCONH2)]L[Lys(iPr)]P[dA]-NH2)
Cardiac arrhythmias, relative risk degarelix vs Lupron (BMI 25-<30 kg/m2): 0.566 | Cardiac disorders (SOC), relative risk degarelix vs Lupron (BMI 25-<30 kg/m2): 0.765 | Coronary artery disorders, relative risk degarelix vs Lupron (BMI 25-<30 kg/m2): 1.013 | Cardiac arrhythmias, relative risk degarelix vs Lupron (BMI <25 kg/m2): 0.312 | Cardiac disorders (SOC), relative risk degarelix vs Lupron (BMI <25 kg/m2): 0.242 | Coronary artery disorders, relative risk degarelix vs Lupron (BMI <25 kg/m2): 0.000 | Coronary artery disorders, relative risk degarelix vs Lupron (BMI <25 kg/m2, listed as degarelix): 0.0 | Cardiac arrhythmias, relative risk degarelix vs Lupron (BMI >=30 kg/m2): 3.161 | Cardiac disorders (SOC), relative risk degarelix vs Lupron (BMI >=30 kg/m2): 1.946 | Coronary artery disorders, relative risk degarelix vs Lupron (BMI >=30 kg/m2): 1.217 | Cardiac arrhythmias, relative risk degarelix vs Lupron (Cholesterol <4 mmol/L): 1.973 | Cardiac arrhythmias, relative risk degarelix vs Lupron (Cholesterol >=4 mmol/L): 0.411 | Cardiac arrhythmias, relative risk degarelix vs Lupron (Cholesterol >=4 mmol/L, listed as degarelix): 0.41 | Coronary artery disease, % of patients: (3%) | Coronary artery disease, incidence rate: 34.2 per 1,000 person years | HLGT Cardiac arrhythmias, % of patients: (5%) | HLGT Cardiac arrhythmias, incidence rate: 57.7 per 1,000 person years | HLGT Central nervous system vascular disorders, % of patients: (<1%) | HLGT Central nervous system vascular disorders, incidence rate: 14.2 per 1,000 person years | HLGT Coronary artery disorders, % of patients: (3%) | HLGT Coronary artery disorders, incidence rate: 34.2 per 1,000 person years | HLGT Heart failures, % of patients: (<1%) | HLGT Heart failures, incidence rate: 14.1 per 1,000 person years | Heart failure, % of patients: (1%) | Heart failure, incidence rate: 14.1 per 1,000 person years | MI, % of patients: (<1%) | MI, incidence rate: 5.64 per 1,000 person years | Stroke, % of patients: (<1%) | Stroke, incidence rate: 8.49 per 1,000 person years

CCNC(=O)[C@@H]1CCCN1C(=O)[C@H](CCCNC(=N)N)NC(=O)[C@H](CC(C)C)NC(=O)[C@@H](CC(C)C)NC(=O)[C@H](Cc1ccc(O)cc1)NC(=O)[C@H](CO)NC(=O)[C@H](Cc1c[nH]c2ccccc12)NC(=O)[C@H](Cc1c[nH]cn1)NC(=O)[C@@H]1CCC(=O)N1 [Leuprolide, leuprolide, reference compound]
Coronary artery disease, % of patients: (5%) | Coronary artery disease, incidence rate: 63.4 per 1,000 person years | HLGT Cardiac arrhythmias, % of patients: (8%) | HLGT Cardiac arrhythmias, incidence rate: 100 per 1,000 person years | HLGT Central nervous system vascular disorders, % of patients: (<1%) | HLGT Central nervous system vascular disorders, incidence rate: 5.63 per 1,000 person years | HLGT Coronary artery disorders, % of patients: (5%) | HLGT Coronary artery disorders, incidence rate: 63.4 per 1,000 person years | HLGT Heart failures, % of patients: (2%) | HLGT Heart failures, incidence rate: 28.4 per 1,000 person years | Heart failure, % of patients: (2%) | Heart failure, incidence rate: 28.4 per 1,000 person years | MI, % of patients: (2%) | MI, incidence rate: 22.6 per 1,000 person years | Stroke, % of patients: (<1%) | Stroke, incidence rate: 5.63 per 1,000 person years
